# In patent US20260070946A1, “TYR PEPTIDE COMPOSITIONS AND METHODS FOR USE” (UNIVERSITY OF MIAMI, priority 2022, published 2026):
# Read-outs that look alike come from different tables or passages of the source. Residues, ends and D or L forms follow the SMILES beside them. No end group written: not given here.
# Legend:
# HT1080 cells [1] = assay: Rapid cell proliferation assay, HT1080, cyclic versus non-cyclic TPA; format: cell-based; settings: 40 μg/ml
# Protocol: Rapid cell proliferation assay was carried out using a Rapid Cell Proliferation Kit, EMD Biosciences (QIA127) (Galoian K, Tumor Biology 32 (4): 745-51, 2011). Cells were seeded at 5×10^4 cells/100 μl culture in the multi-well plate and incubated overnight at 37° C. in 5% CO2 incubator. The actual assay was performed the next day. The rapid cell proliferation assay is based on the activity of mitochondrial enzymes active in viable cells. PRP-1 was added to corresponding wells just after seeding, before overnight incubation. The colorimetric 96-well assay measures colorful product like formazan because of WST-1 tetrazolium salt cleavage by the mitochondrial dehydrogenases. The formazan formation is then quantified by measuring the change in absorbance at 450 nm in a microplate reader. The activity of mitochondrial dehydrogenases is proportional to cell number. No washing, harvesting, or solubilization steps are required. In this series of experiments, PRP-1 was added to corresponding wells immediately after seeding and cell attachment followed by overnight incubation according to the manufacturer's instructions.
# The cyclic version was created to protect the peptide from being degraded by proteases in vivo. The cyclic peptide was tested for its potency in a rapid cell proliferation assay using HT1080 cells as described above using 40 μg/ml TPA or cyclic TPA in the assay.
# HT1080 cells [2] = format: cell-based, human
# Description: Analysis of anti-proliferative activity in HT1080 cells was examined.
# [3] = system: MDA 231 (ER-) breast cell carcinoma cells; settings: cited from earlier work
# T47-D (ER+) cells = settings: cited from earlier work
# [4] = system: HT1080 fibrosarcoma cells; assay: Survival experiment with HT1080 cells derived from doxorubicin relapsed mice; format: in vivo
# Protocol: Additional survival experiments were undertaken. HT1080 fibrosarcoma cells were used in this experiment that derived from doxorubicin relapsed mice. The cells from tumor were excised as single cell suspension for quick isolation from tissue for subsequent luminescent labeling, then they were cultured in vitro and re-transplanted.
# HT1080 fibrosarcoma = HT1080 fibrosarcoma nude mice model (IVIS, tumor volume, tumor weight); format: in vivo
# Protocol: A nude mice model was used in which animals receive orthotopic inoculation of highly metastatic JJ012 chondrosarcoma or HT1080 fibrosarcoma tumor cell lines or primary cell lines labeled with extremely red bright fluorescent protein PTDT-N1.
# Disease progression is evaluated through clinical signs and animal-relevant responses, tumor size analysis, real-time fluorescence and bioluminescence imaging (IVIS) of both in vivo and ex vivo disease-specific tumor microenvironments and lung metastases.
# Monitoring of the solid tumors is as follows (when visible, tumors will be measured by noninvasive imaging or caliper at least weekly). Experimental endpoints depend on the site of transplantation. Mice are euthanized before they reach a tumor volume of 2 cm^3 for a single or multiple tumors. The overriding consideration for humane endpoints of these oncological experiments will be the overall health of the animal. Animals are weighed at least once a week for fast growing tumors (reaching endpoint before 3 months after transplantation) and at least once a month for slow growing tumors. Any tumor-bearing animal are euthanized immediately if the tumor impairs ambulation or eating. […] Animals bearing tumors in such locations are euthanized before the tumors reach the above-stated dimensions.
# Tumor-bearing mice are photographed either at the experimental endpoint or using noninvasive imaging technologies to monitor tumor progression. Also contemplated is imaging in vivo for evidence of tumor progression (BLI, IVIS), and observance of clinical signs of metastases (listlessness, weight loss, or hunched posture). Tumors and lungs are harvested to confirm presence of lung metastases and further analyzed: tumors are weighed, photographed, and sectioned into samples designated half for 10% formalin fixation analysis or half for snap-freeze in liquid nitrogen for future analysis.
# fibrosarcoma spheroids = assay: Neutral red cytotoxicity assay; format: cell-based
# [5] = system: 3D fibrosarcoma spheroids; assay: Self-renewal assay with 3D fibrosarcoma; format: cell-based
# [6] = system: cardiomyocyte cell line AC16; assay: Cardiotoxicity in cardiomyocyte cell line AC16; format: cell-based; settings: 24 hours; TPA 40 μg/mL, Doxo 2 mM
# Protocol: Cardiotoxicity results of TPA, Doxo and TPA+Doxo combo were analyzed in cardiomyocyte cell line AC16. Cells were treated 24 hours with C (control, DMSO 0.5%), TPA (40 μg/mL), Doxo (Doxorubicin, 2 mM), and TPA (40 μg/mL)+Doxo (2 mM). (FIG. 10). […] Thus, overall survival increases observed in vivo should be attributed to TPA's ability to target and eliminate cancer stem cells.
# [7] = system: osteosarcoma cell line KHOS; assay: Rapid cell proliferation assay, KHOS; format: cell-based; settings: 48 h
# Protocol: (§1) The effects of TPA on three osteosarcoma cell lines OSA, KHOS, MNNG was analyzed (FIG. 11). Rapid cell proliferation was measured by a Rapid Cell Proliferation Kit, EMD Biosciences (QIA127). Cells were seeded at 5×10^4 cells/100 μl culture in a multi-well plate and incubated overnight at 37° C. in 5% CO2 incubator. The actual assay was performed the next day. The rapid cell proliferation assay is based on the activity of mitochondrial enzymes active in viable cells. TPA was added to corresponding wells just after seeding, and before overnight incubation. The 96-well assay measures colorimetric product like formazan because of WST-1 tetrazolium salt cleavage by the mitochondrial dehydrogenases. TPA exerted its effect in all cell lines 48 hours after the incubation. […] (FIG. 11)
# [8] = system: osteosarcoma cell line MNNG; assay: Rapid cell proliferation assay, MNNG; format: cell-based; settings: only the highest dose of 40 μg/ml, 48 hours
# Protocol: as §1
# Nanog = Nanog mRNA expression in 3D HT1080 lysates; format: cell-based; settings: 3D lysates, TPA 20 μg/mL
# Description: (§2) Experiments herein (FIG. 13) indicated there was statistically significant inhibition in 3DHT1080 cell line for EZH2, and its targets, embryonic transcription factor Nanog (Villasante et al., Cell Cycle. 10 (9): 1488-498, 2011), and cancer stem cell marker […], ALDH1A1 (Li et al., Cancer Prev Res (Phila). 25 (3): 484-491 2012). Aldehyde dehydrogenase (ALDH) is an established marker of CSCs in several neoplasms. Cells expressing high levels of ALDH have been isolated in a number of human sarcoma cell lines, including the human chondrosarcoma SW 1353 cell line (Lohberger et al., PLOS One 7).
# EZH2 = EZH2 mRNA expression in 3D HT1080 lysates; format: cell-based; settings: 3D lysates, TPA 20 μg/mL
# Description: as §2
# ALDHA = ALDHA mRNA expression in 3D HT1080 lysates; format: cell-based; settings: 3D lysates, TPA 20 μg/mL
# Description: as §2
# Nanog protein = Nanog protein expression in 3D HT1080 cells, western blot; format: cell-based; settings: 40 μg/ml
# HOXC13 proteins = assay: Inhibition of HOXC13 proteins
# [9] = system: chondrosarcoma and fibrosarcoma
# [10] = mouse, in vivo
# [11] = Acute and cumulative toxicity in mice
compound,measurement,setting,value
"CC(C)C[C@@H]1NC(=O)[C@H](CCC(=O)O)NC(=O)[C@@H]2CCCN2C(=O)[C@H](CC(=O)O)NC(=O)[C@H](C)NC(=O)[C@@H]2CCCN2C(=O)CNC(=O)[C@H](CCCCN)NC(=O)[C@@H]2CCCN2C(=O)[C@H](CCC(=O)O)NC(=O)[C@@H]2CCCN2C(=O)[C@H]([C@@H](C)O)NC(=O)[C@H](CCC(=O)O)NC(=O)[C@H](CO)NC(=O)[C@H](Cc2ccc(OP(=O)(O)O)cc2)NC1=O [cyclic TPA, Cyclo(Ser-Glu-Thr-Pro-Glu-Pro-Lys-Gly-Pro-Ala-Asp-Pro-Glu-Leu-Tyr (PO3H2))] (HELM PEPTIDE1{A.D.P.E.L.[O=C([C@H](Cc1ccc(OP(=O)(O)O)cc1)N[*:1])[*:2]].S.E.T.P.E.P.K.G.P}$PEPTIDE1,PEPTIDE1,1:R1-15:R2$$$V2.0)",improvement over non-cyclic TPA,HT1080 cells [1],~1.5 fold
same,inhibition of cell growth compared to control,HT1080 cells [1],over 50%
"SETPEPKGPADPELY [TPA 1, SETPEPKGPADPELY]","IC50, anti-proliferative activity",HT1080 cells [2],21 µg/mL
same,concentration of maximum effect,"HT1080 cells [2]; HT1080 human fibrosarcoma, dose response",40 µg/mL
same,effect on cancer stem cell spheroids,"HT1080 cells [2]; visual, maximum effect with 40 μg/ml",destruction of cancer stem cell spheroids in dose response manner
AGAPEPAEPAQPGVY [PRP-1],inhibition of cell growth,[3]; 0.5 μg/ml PRP-1,71%
same,inhibition of cell growth,[3]; 1 μg/ml PRP-1,63%
same,inhibition of cell growth,[3]; 10 μg/ml,44%
same,inhibitory effect on cell growth,T47-D (ER+) cells,no inhibitory effect
COc1cccc2c1C(=O)c1c(O)c3c(c(O)c1C2=O)C[C@@](O)(C(=O)CO)C[C@@H]3O[C@H]1C[C@H](N)[C@H](O)[C@H](C)O1 [doxorubicin],median survival,"[4]; 10 mice per group, control (PBS) 21 days",28 days
same,overall Median Survival advantage,[4]; mice re-transplanted with cells from doxorubicin relapsed tumors,33%
"SETPEPKGPADPELY [TPA, SETPEPKGPADPELY]",tumor volume versus Control,HT1080 fibrosarcoma; by day 18,trend toward decreased tumor volume
same,tumor weights at necropsy versus Control,HT1080 fibrosarcoma; day after Day 14,no difference in tumor weights
same,IVIS tumor growth compared to Control,"HT1080 fibrosarcoma; through Day 14, IVIS % Growth p<0.001",decreased growth
same,cytotoxic effect relative to doxorubicin (DO),fibrosarcoma spheroids; 40 μg/ml,almost that in cytotoxic doxorubicin
same,viability of fibrosarcoma spheroids,fibrosarcoma spheroids; increased concentration of TPA peptide,dose response decrease in viability
same,effect on spheroids in comparison to not treated control,[5]; 20 μg/ml,destruction and shrinkage of the spheroid
same,viability of the shrunken spheroids by viability assay,[5]; 20 μg/ml,non viable
same,spheroid formation,[5]; 40 μg/ml,completely prevented spheroid formation
same,cytotoxicity in cardiomyocytes,[6],did not show any toxicity
same,growth inhibition,[7],40%
same,growth inhibition,[8],inhibited growth
same,Nanog mRNA fold decrease versus control,Nanog,7.69 fold
same,reduced expression of Nanog,Nanog; normalized to GAPDH mRNA,87%
same,EZH2 mRNA fold decrease versus control,EZH2,5 fold
same,reduced expression of EZH2,EZH2; normalized to GAPDH mRNA,80%
same,ALDHA mRNA fold decrease versus control,ALDHA,3.22 fold
same,reduced expression of ALDHA,ALDHA; normalized to GAPDH mRNA,69%
same,inhibition of Nanog protein in comparison with control,Nanog protein,47%
same,inhibition of HOXC13 proteins,HOXC13 proteins,inhibits in a statistically significant manner
same,inhibition of chondrosarcoma and fibrosarcoma growth,[9],80-90%
same,blood count and chemistry,[10],no change in blood count and chemistry
same,cumulative toxicity,[11]; following 14 days of TPA treatment,no cumulative toxicity
same,acute toxicity (change in weight or behavior),[11]; up to 100 mg/kg,No acute toxicity
